Tested on: Klebsiella oxytoca (CDCJI 380)
Assay: holographic monitoring of cellular growth of Klebsiella oxytoca incubated with antibiotic
Assay type: cell-based
Conditions: 0.5 mg/mL Meropenem, about eight hours incubation
Method: FIGS. 18A-18E depict a sequence of photographs A-E of a sample volume 18, with FIG. 18A depicting the earliest photograph, and FIG. 18E depicting the latest photograph. The photographs A-E show cellular growth of Klebsiella oxytoca (CDCJI 380), which was incubated with 0.5 mg/mL of the antibiotic Meropenem over a period of about eight hours. The photographs A-E provide an example of a complex response of microorganisms to an antibiotic. A holograph 32 of the sample volume 18 was captured every ten minutes during the incubation period. FIG. 19 depicts a graph including a plot 170 of a cellular growth indicator (e.g., the holographic intensity variance) extracted from the full holograph 32, and a plot 172 of the cellular growth indicator extracted from the set of pixels comprising tile six of the holograph 32. The times corresponding to the photographs A-E of FIGS. 18A-18E are indicted by correspondingly labeled arrows in the graph of FIG. 19. […] The slight rise in the cellular growth indicator after seven hours is the earliest indication of a potential resurgence of cell growth, e.g., due to the microorganism becoming resistant.
The divergence of tile plot 172 from the full-holograph plot 170 begins at about the three and half hour mark. This is due to the response of the microorganism to the antibiotic in the localized region of the sample volume corresponding to tile six. This region of the sample volume contains a subpopulation of bacterial cells that appear to have become resistant to the antibiotic, and have begun to grow in colony clusters. This example of delayed resistance to an antibiotic is clinically relevant, and recognizing the resistance early in a test can lead to timely administration of the correct antibiotic at the right dose to treat the patient. From an algorithmic perspective, systematically dividing holographs into portions (e.g., tiles) and calculating the cellular growth indicator for each portion can be used to identify events or hot spots in the growth or death of microorganisms.

Question: `C[C@@H](O)[C@H]1C(=O)N2C(C(=O)O)=C(S[C@@H]3CN[C@H](C(=O)N(C)C)C3)[C@H](C)[C@H]12` [Meropenem] was tested. Which “cellular growth indicator (e.g., holographic intensity variance) over time, full holograph” value (full-holograph plot 170) did it give?
Answer: Its value is “decreases after three and a half hours of incubation, followed by a slight increase after seven hours of incubation”.

Question: And the “response of microorganism to antibiotic based on full-holograph plot” value (holograph every ten minutes, full-holograph plot 170)?
Answer: Its value is “appears to be sensitive to the dose of antibiotic”.

Question: What about the “cellular growth indicator over time, tile six of the holograph” value (tile plot 172 (tile six)) of the same molecule?
Answer: Its value is “resurgent growth due to emerging antibiotic resistance at about four and a half hours”.
